# Reference: ChEMBL document CHEMBL4385611, “Difluoromethylene at the γ-Lactam α-Position Improves 11-Deoxy-8-aza-PGE1 Series EP4 Receptor Binding and Activity: 11-Deoxy-10,10-difluoro-8-aza-PGE1 Analog (KMN-159) as a Potent EP4 Agonist” (J Med Chem, 2019)
# Legend:
# [1] = target: T1, Prostaglandin E2 receptor EP2 subtype (Homo sapiens, UniProt P43116); assay: Displacement of [3H]PGE2 from human recombinant EP2 receptor expressed in HEK293 cell membranes after 120 mins by liquid scintillation counting method
# [2] = target: Prostaglandin E2 receptor EP4 subtype (Homo sapiens, UniProt P35408); assay: Agonist activity at human EP4 receptor expressed in HEK293T/17 cells assessed as increase in intracellular cAMP level incubated for 30 mins by ELISA; format: functional, cell-based
# [3] = target: T1, Prostaglandin E2 receptor EP2 subtype; assay: Agonist activity at human EP2 receptor expressed in HEK293T/17 cells assessed as increase in intracellular cAMP level incubated for 30 mins by ELISA; format: functional, cell-based
# [4] = n-Octanol-PBS buffer partition coefficient, log D of the compound at 100 uM at pH 7.4 after 1 hr by LC-MS/MS analysis; format: physicochemical
# [5] = Half-life in human plasma at 1 uM by HPLC-MS/MS analysis; format: ADME, cell-free
# [6] = Half-life in human liver microsomes at 0.1 uM by HPLC-MS/MS analysis; format: ADME, Microsome
# [7] = Half-life in human hepatocytes at 0.1 uM by HPLC-MS/MS analysis; format: ADME, cell-based, Hepatocyte
# Cytochrome P450 1A = target: T2, Cytochrome P450 1A (Homo sapiens, UniProt P04798+P05177); assay: Inhibition of CYP1A in human liver microsomes using phenacetin as substrate at 10 uM after 10 mins by HPLC-MS/MS analysis; format: ADME
# T2 sequence (P04798 whole entry): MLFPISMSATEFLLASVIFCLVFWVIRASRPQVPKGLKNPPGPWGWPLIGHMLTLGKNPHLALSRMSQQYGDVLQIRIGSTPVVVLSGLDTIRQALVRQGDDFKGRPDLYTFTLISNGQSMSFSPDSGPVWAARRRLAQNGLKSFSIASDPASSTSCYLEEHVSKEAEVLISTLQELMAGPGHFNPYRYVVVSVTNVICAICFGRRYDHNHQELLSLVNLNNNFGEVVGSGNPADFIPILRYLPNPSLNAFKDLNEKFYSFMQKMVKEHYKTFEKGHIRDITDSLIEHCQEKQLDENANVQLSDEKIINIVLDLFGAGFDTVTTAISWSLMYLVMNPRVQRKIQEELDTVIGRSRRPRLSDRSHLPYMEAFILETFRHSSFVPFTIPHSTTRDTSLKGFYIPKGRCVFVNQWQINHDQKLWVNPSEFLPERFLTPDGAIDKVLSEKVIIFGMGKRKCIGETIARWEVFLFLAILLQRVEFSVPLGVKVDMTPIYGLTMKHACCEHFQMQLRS
# T2 sequence (P05177 whole entry): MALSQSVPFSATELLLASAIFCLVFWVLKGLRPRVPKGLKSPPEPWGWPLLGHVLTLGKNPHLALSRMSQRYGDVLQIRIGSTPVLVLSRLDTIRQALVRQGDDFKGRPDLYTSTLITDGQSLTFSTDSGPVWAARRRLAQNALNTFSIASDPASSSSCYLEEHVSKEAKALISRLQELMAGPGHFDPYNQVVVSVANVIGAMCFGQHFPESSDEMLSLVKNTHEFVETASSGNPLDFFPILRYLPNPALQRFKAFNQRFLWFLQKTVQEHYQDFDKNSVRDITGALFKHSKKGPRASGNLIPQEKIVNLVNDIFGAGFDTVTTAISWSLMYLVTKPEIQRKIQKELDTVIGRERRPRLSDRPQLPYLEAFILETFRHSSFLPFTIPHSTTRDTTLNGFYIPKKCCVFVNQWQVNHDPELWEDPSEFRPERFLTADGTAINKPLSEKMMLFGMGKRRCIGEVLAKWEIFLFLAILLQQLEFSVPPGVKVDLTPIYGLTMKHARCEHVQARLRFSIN
# Cytochrome P450 2B6 = target: T3, Cytochrome P450 2B6 (Homo sapiens, UniProt P20813); assay: Inhibition of CYP2B6 in human liver microsomes using bupropion as substrate at 10 uM after 10 mins by HPLC-MS/MS analysis; format: ADME
# T3 sequence (P20813 whole entry): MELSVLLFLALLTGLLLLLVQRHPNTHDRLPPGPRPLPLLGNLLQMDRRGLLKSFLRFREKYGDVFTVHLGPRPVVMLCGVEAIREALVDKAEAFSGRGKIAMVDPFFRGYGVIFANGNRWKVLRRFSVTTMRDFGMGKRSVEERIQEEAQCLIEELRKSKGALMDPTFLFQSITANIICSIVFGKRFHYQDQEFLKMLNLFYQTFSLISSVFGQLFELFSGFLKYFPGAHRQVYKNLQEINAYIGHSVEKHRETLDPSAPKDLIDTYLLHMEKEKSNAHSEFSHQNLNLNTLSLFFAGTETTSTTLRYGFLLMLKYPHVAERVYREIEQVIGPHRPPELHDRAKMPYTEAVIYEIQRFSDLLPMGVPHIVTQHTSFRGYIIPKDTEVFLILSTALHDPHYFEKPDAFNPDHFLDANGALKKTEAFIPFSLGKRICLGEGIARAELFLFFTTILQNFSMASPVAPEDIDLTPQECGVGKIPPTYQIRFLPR
# Cytochrome P450 2C9 = Cytochrome P450 2C9 (Homo sapiens, UniProt P11712); assay: Inhibition of CYP2C9 in human liver microsomes using diclofenac as substrate at uM after 10 mins by HPLC-MS/MS analysis; format: ADME
# Cytochrome P450 2C19 = Cytochrome P450 2C19 (Homo sapiens, UniProt P33261); assay: Inhibition of CYP2C19 in human liver microsomes using omeprazole as substrate at 10 uM after 10 mins by HPLC-MS/MS analysis; format: ADME
# Cytochrome P450 3A [8] = target: T4, Cytochrome P450 3A (Homo sapiens, UniProt P08684+P20815+Q9HB55+P24462); assay: Inhibition of CYP3A in human liver microsomes using midazolam as substrate at 10 uM after 10 mins by HPLC-MS/MS analysis; format: ADME
# Cytochrome P450 3A [9] = target: T4, Cytochrome P450 3A; assay: Inhibition of CYP3A in human liver microsomes using testosterone as substrate at 10 uM after 10 mins by HPLC-MS/MS analysis; format: ADME
# [10] = Genotoxicity in Salmonella typhimurium TA1535 at 0.6 to 100 uM after 96 hrs by photometry analysis; format: toxicity; settings: salmonella enterica subsp. enterica serovar typhimurium
# [11] = Genotoxicity in Salmonella typhimurium TA1537 at 0.6 to 100 uM after 96 hrs by photometry analysis; format: toxicity; settings: salmonella enterica subsp. enterica serovar typhimurium
# [12] = Mutagenicity in Salmonella typhimurium TA1535 after 96 hrs in presence of rat liver S9 fraction by Ames test; format: toxicity, subcellular; settings: salmonella enterica subsp. enterica serovar typhimurium, s9, 96 h
# [13] = Mutagenicity in Salmonella typhimurium TA1537 after 96 hrs in presence of rat liver S9 fraction by Ames test; format: toxicity, subcellular; settings: salmonella enterica subsp. enterica serovar typhimurium, s9, 96 h
# [14] = target: Voltage-gated inwardly rectifying potassium channel KCNH2 (Homo sapiens, UniProt Q12809); assay: Inhibition of human ERG expressed in CHOK1 cells assessed as reduction in tail current amplitude by automated patch-clamp method; format: cell-based
# [15] = Mutagenicity in Salmonella typhimurium TA98 after 96 hrs in absence of rat liver S9 fraction by Ames test; format: toxicity; settings: salmonella enterica subsp. enterica serovar typhimurium, s9, 96 h
# [16] = Mutagenicity in Salmonella typhimurium TA100 after 96 hrs in absence of rat liver S9 fraction by Ames test; format: toxicity; settings: salmonella enterica subsp. enterica serovar typhimurium, s9, 96 h
# [17] = Mutagenicity in Salmonella typhimurium TA1537 after 96 hrs in absence of rat liver S9 fraction by Ames test; format: toxicity; settings: salmonella enterica subsp. enterica serovar typhimurium, s9, 96 h
# T1 sequence (P43116 whole entry): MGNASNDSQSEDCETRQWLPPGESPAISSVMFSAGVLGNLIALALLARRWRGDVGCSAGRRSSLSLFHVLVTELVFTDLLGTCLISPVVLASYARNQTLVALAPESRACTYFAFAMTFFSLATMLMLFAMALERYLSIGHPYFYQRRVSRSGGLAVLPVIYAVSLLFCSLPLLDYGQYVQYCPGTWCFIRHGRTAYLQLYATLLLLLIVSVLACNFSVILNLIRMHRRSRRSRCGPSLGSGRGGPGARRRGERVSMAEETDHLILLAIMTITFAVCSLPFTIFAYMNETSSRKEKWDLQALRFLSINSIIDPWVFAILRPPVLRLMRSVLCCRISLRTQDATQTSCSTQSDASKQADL
# Sequence of Cytochrome P450 2C19 (P33261 whole entry): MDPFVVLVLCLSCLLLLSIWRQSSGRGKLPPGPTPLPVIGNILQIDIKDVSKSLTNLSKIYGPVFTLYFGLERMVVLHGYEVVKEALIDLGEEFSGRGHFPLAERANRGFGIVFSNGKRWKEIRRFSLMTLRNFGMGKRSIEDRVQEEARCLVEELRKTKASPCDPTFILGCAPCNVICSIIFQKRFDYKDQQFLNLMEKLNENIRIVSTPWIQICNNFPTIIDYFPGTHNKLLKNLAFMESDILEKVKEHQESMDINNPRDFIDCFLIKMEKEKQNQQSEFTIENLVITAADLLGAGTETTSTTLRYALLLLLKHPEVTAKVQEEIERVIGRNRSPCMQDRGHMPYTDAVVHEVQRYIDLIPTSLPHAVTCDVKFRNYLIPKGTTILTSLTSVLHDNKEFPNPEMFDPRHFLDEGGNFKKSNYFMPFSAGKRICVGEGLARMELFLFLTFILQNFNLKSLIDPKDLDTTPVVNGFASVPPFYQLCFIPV
# Sequence of Prostaglandin E2 receptor EP4 subtype (P35408 whole entry): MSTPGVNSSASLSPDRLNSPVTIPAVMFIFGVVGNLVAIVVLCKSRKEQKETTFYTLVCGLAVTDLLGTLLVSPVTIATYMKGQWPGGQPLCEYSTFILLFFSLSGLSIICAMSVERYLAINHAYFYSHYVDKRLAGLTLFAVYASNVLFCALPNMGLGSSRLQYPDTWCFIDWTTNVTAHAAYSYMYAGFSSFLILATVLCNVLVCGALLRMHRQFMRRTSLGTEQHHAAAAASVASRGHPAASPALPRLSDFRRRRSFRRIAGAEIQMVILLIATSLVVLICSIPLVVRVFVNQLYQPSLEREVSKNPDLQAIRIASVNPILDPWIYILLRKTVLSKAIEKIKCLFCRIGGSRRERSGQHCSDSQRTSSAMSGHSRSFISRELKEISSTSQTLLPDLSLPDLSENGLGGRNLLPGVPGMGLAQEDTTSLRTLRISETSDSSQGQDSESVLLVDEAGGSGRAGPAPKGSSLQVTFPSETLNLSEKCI
# Sequence of Cytochrome P450 2C9 (P11712 whole entry): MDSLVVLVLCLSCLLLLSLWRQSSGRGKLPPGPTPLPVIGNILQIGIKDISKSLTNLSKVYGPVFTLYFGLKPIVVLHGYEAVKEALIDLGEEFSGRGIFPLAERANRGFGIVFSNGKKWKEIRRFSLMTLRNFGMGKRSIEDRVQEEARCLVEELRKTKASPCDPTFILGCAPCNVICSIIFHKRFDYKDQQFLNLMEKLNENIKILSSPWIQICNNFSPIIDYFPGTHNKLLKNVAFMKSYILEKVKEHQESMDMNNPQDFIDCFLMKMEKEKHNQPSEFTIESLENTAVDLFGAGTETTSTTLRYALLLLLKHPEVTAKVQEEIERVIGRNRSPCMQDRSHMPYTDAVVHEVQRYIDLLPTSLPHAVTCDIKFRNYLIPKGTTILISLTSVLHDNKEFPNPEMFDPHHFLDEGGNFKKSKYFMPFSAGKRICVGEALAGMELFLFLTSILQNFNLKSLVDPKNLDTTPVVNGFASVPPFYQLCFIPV
# Sequence of Voltage-gated inwardly rectifying potassium channel KCNH2 (Q12809 whole entry): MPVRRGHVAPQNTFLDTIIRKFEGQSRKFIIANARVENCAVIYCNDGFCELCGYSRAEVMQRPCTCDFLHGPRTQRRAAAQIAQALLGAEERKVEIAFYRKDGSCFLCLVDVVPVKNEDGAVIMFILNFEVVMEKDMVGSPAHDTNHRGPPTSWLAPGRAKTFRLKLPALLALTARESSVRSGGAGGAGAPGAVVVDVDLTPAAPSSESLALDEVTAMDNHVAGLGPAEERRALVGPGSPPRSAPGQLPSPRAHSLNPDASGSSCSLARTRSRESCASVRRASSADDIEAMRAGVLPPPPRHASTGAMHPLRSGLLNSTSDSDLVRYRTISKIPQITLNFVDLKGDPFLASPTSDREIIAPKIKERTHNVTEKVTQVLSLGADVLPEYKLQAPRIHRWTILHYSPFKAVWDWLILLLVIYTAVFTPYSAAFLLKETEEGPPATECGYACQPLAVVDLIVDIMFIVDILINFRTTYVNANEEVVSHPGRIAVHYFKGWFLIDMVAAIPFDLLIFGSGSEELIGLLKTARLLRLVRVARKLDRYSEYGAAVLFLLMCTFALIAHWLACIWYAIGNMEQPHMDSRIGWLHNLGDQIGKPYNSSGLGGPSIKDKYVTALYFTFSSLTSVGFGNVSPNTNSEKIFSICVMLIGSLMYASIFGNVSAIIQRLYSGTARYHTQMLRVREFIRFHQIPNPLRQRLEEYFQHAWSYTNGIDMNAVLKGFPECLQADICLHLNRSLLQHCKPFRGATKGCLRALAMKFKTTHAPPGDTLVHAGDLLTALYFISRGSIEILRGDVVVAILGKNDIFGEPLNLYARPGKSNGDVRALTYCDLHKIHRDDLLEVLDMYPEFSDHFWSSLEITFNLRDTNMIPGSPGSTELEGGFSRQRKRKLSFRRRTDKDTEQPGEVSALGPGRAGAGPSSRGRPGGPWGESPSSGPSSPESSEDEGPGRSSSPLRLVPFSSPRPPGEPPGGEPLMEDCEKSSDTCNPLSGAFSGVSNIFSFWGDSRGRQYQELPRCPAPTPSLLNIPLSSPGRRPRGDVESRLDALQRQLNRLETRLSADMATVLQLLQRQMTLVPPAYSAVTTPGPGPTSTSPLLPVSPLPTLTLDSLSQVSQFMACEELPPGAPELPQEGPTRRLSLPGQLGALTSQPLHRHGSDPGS
Ki [1] [µM],EC50 [2] [nM],EC50 [3] [µM],"logD at 1 h, 100 µM [4]",half-life at 1 µM [5] [min],half-life at 0.1 µM [6] [min],half-life at 0.1 µM [7] [min],inhibition (INH) (Cytochrome P450 1A),inhibition (INH) (Cytochrome P450 2B6),inhibition (INH) (Cytochrome P450 2C9),inhibition (INH) (Cytochrome P450 2C19),inhibition (INH) (Cytochrome P450 3A [8]),inhibition (INH) (Cytochrome P450 3A [9]),Compound,Activity [10],Activity [11],Activity [12],Activity [13],IC50 [14] [µM],Activity [15],Activity [16],further results
12.2,19.9,> 10,-0.07,116,> 60,> 120,Not Active,Not Active,Not Active,Not Active,Not Active,Not Active,CCC#CC[C@H](C)[C@H](O)/C=C/[C@H]1CCC(=O)N1CCCCCCC(=O)O,Non-Toxic,Non-Toxic,Non-Toxic,Non-Toxic,29,Non-Toxic,Non-Toxic,Activity [17]: Non-Toxic
4.97,2.63,> 10,0.11,> 120,> 60,> 120,Not Active,Not Active,Not Active,Not Active,Not Active,Not Active,CCC#CC[C@H](C)[C@H](O)/C=C/[C@H]1CC(F)(F)C(=O)N1CCCCCCC(=O)O,Non-Toxic,Non-Toxic,Non-Toxic,Non-Toxic,25.9,Non-Toxic,Non-Toxic,Activity [17]: Non-Toxic
